Where “and” joins values, the source holds several entries; their conditions need not be identical. Equal entries are not always repeated.
Tested on: 947758-054-R-J2-PDC spheroid growth, percent test/control
Experiment: Anticancer human tumor 947758-054-R-J2-PDC patient-derived colon adenocarcinoma cell line growth inhibition [CLK]
Details: spheroids with HUVEC and MSC; for viability, T/C: stronger effect = lower value
Method in brief: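 Multi-cell-type spheroids combined patient-derived tumor cells with HUVEC endothelial cells and human mesenchymal stem cells. Paired agents were dosed in half-log steps down from about clinical Cmax, or from 10 microM where Cmax was unknown.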

[1] = curve of first compound, second compound 0.0316 µM
[2] = curve of first compound, second compound 0.1 µM
[3] = curve of first compound, second compound 0.316 µM
[4] = curve of first compound, second compound 1 µM
[5] = curve of first compound, second compound 3.16 µM
[6] = curve of first compound, second compound 10 µM
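Note: spheroids exposed to compounds for one week before readout.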
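Throughout, for viability, T/C: 100% = DMSO vehicle control wells.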

With `NC(=O)C(=Cn1cnc(-c2cc(C(F)(F)F)cc(C(F)(F)F)c2)n1)c1cncnc1` + CN1CCN(c2cc(C(=O)Nc3cc4cc(-c5cnn(C)c5)ccc4cn3)ccn2)CC1 the IC50 [1] was 78.5 nM, the IC50 [2] was < 9.49 nM and the IC50 [3] was < 9.49 nM. The IC50 [4] was < 9.49 nM, the IC50 [5] was < 9.49 nM and the IC50 [6] was < 9.49 nM. For the same molecule, the viability, T/C (second compound 0.0316 µM, first compound 0.00949 µM) was 195%, the viability, T/C (second compound 0.0316 µM, first compound 0.03 µM) was 224% and the viability, T/C (second compound 0.0316 µM, first compound 0.0949 µM) was 44.3%. It also gave a viability, T/C (second compound 0.0316 µM, first compound 0.3 µM) of 19%, a viability, T/C (second compound 0.0316 µM, first compound 0.949 µM) of 10.3% and a viability, T/C (second compound 0.0316 µM, first compound 3 µM) of 0.87%. It also gave a viability, T/C (second compound 0.1 µM, first compound 0.00949 µM) of 42.9%, a viability, T/C (second compound 0.1 µM, first compound 0.03 µM) of 24.9% and a viability, T/C (second compound 0.1 µM, first compound 0.0949 µM) of 16.4%. It also gave a viability, T/C (second compound 0.1 µM, first compound 0.3 µM) of 6.99%, a viability, T/C (second compound 0.1 µM, first compound 0.949 µM) of 0.38% and a viability, T/C (second compound 0.1 µM, first compound 3 µM) of 0.42%. For the same molecule, the viability, T/C (second compound 0.316 µM, first compound 0.00949 µM) was 0.44%, the viability, T/C (second compound 0.316 µM, first compound 0.03 µM) was 0.27% and the viability, T/C (second compound 0.316 µM, first compound 0.0949 µM) was 0.21%. It also gave a viability, T/C (second compound 0.316 µM, first compound 0.3 µM) of 1.5%, a viability, T/C (second compound 0.316 µM, first compound 0.949 µM) of 0.15% and a viability, T/C (second compound 0.316 µM, first compound 3 µM) of 0.3%. The viability, T/C (second compound 1 µM, first compound 0.00949 µM) was 0.13%, the viability, T/C (second compound 1 µM, first compound 0.03 µM) was 0.18% and the viability, T/C (second compound 1 µM, first compound 0.0949 µM) was 0.39%. The viability, T/C (second compound 1 µM, first compound 0.3 µM) was 0.33%, the viability, T/C (second compound 1 µM, first compound 0.949 µM) was 1.84% and the viability, T/C (second compound 1 µM, first compound 3 µM) was 0.25%. It also gave a viability, T/C (second compound 3.16 µM, first compound 0.00949 µM) of 0.31%, a viability, T/C (second compound 3.16 µM, first compound 0.03 µM) of 0.76% and a viability, T/C (second compound 3.16 µM, first compound 0.0949 µM) of 0.81%. The viability, T/C (second compound 3.16 µM, first compound 0.3 µM) was 0.66%, the viability, T/C (second compound 3.16 µM, first compound 0.949 µM) was 1.31% and the viability, T/C (second compound 3.16 µM, first compound 3 µM) was 1.56%. The viability, T/C (second compound 10 µM, first compound 0.00949 µM) was 0.47%, the viability, T/C (second compound 10 µM, first compound 0.03 µM) was 0.74% and the viability, T/C (second compound 10 µM, first compound 0.0949 µM) was 1.04%. For the same molecule, the viability, T/C (second compound 10 µM, first compound 0.3 µM) was 0.9%, the viability, T/C (second compound 10 µM, first compound 0.949 µM) was 1.38% and the viability, T/C (second compound 10 µM, first compound 3 µM) was 0.53%.
In the case of `C#Cc1c(F)ccc2cc(O)cc(-c3ncc4c(N5CC6CCC(C5)N6)nc(OCC56CCCN5CC(F)C6)nc4c3F)c12` (stereo not drawn), the viability, T/C (compound 0.0316 µM) is reported as 97% and 82.7%, the viability, T/C (compound 0.1 µM) is reported as 90.4% and 83.7% and the viability, T/C (compound 0.316 µM) is reported as 100% and 88%. The viability, T/C (compound 1 µM) was 80% and 85.2%, the viability, T/C (compound 3.16 µM) was 87.3% and 82.6% and the viability, T/C (compound 10 µM) was 87.5% and 88%. For the same molecule, the IC50 (curve of compound) was > 10000 nM.
In the case of `CC(=O)O[C@H]1C(=O)[C@@]2(C)[C@H]([C@H](OC(=O)c3ccccc3)[C@]3(O)C[C@H](OC(=O)[C@H](O)[C@@H](NC(=O)c4ccccc4)c4ccccc4)C(C)=C1C3(C)C)[C@]1(OC(C)=O)CO[C@@H]1C[C@@H]2O` + CNC(=O)c1ccc(Nc2nc(OC3CCCC3)c3c(-c4ccc5nc(C)oc5c4)c[nH]c3n2)c(OC)c1, the IC50 [1] is reported as < 31.6 nM, the IC50 [2] is reported as > 10000 nM and the IC50 [3] is reported as < 31.6 nM. The IC50 [4] was > 10000 nM, the IC50 [5] was < 31.6 nM and the IC50 [6] was < 31.6 nM. The viability, T/C (second compound 0.0316 µM, first compound 0.0316 µM) was 27.7%, the viability, T/C (second compound 0.0316 µM, first compound 0.1 µM) was 34.4% and the viability, T/C (second compound 0.0316 µM, first compound 0.316 µM) was 31.7%. For the same molecule, the viability, T/C (second compound 0.0316 µM, first compound 1 µM) was 35.2%, the viability, T/C (second compound 0.0316 µM, first compound 3.16 µM) was 40.6% and the viability, T/C (second compound 0.0316 µM, first compound 10 µM) was 47.7%. The viability, T/C (second compound 0.1 µM, first compound 0.0316 µM) was 61.2%, the viability, T/C (second compound 0.1 µM, first compound 0.1 µM) was 59% and the viability, T/C (second compound 0.1 µM, first compound 0.316 µM) was 65%. The viability, T/C (second compound 0.1 µM, first compound 1 µM) was 79.8%, the viability, T/C (second compound 0.1 µM, first compound 3.16 µM) was 79.1% and the viability, T/C (second compound 0.1 µM, first compound 10 µM) was 90.5%. It also gave a viability, T/C (second compound 0.316 µM, first compound 0.0316 µM) of 47.7%, a viability, T/C (second compound 0.316 µM, first compound 0.1 µM) of 65.1% and a viability, T/C (second compound 0.316 µM, first compound 0.316 µM) of 74.4%. The viability, T/C (second compound 0.316 µM, first compound 1 µM) was 85.6%, the viability, T/C (second compound 0.316 µM, first compound 3.16 µM) was 88.3% and the viability, T/C (second compound 0.316 µM, first compound 10 µM) was 87.4%. The viability, T/C (second compound 1 µM, first compound 0.0316 µM) was 41.1%, the viability, T/C (second compound 1 µM, first compound 0.1 µM) was 83.5% and the viability, T/C (second compound 1 µM, first compound 0.316 µM) was 59.1%. It also gave a viability, T/C (second compound 1 µM, first compound 1 µM) of 61.9%, a viability, T/C (second compound 1 µM, first compound 3.16 µM) of 82.8% and a viability, T/C (second compound 1 µM, first compound 10 µM) of 57.6%. The viability, T/C (second compound 3.16 µM, first compound 0.0316 µM) was 36.9%, the viability, T/C (second compound 3.16 µM, first compound 0.1 µM) was 43.8% and the viability, T/C (second compound 3.16 µM, first compound 0.316 µM) was 70.2%. For the same molecule, the viability, T/C (second compound 3.16 µM, first compound 1 µM) was 70.8%, the viability, T/C (second compound 3.16 µM, first compound 3.16 µM) was 67.9% and the viability, T/C (second compound 3.16 µM, first compound 10 µM) was 56.8%. It also gave a viability, T/C (second compound 10 µM, first compound 0.0316 µM) of 35.2%, a viability, T/C (second compound 10 µM, first compound 0.1 µM) of 42.1% and a viability, T/C (second compound 10 µM, first compound 0.316 µM) of 56.7%. It also gave a viability, T/C (second compound 10 µM, first compound 1 µM) of 53.9%, a viability, T/C (second compound 10 µM, first compound 3.16 µM) of 56.8% and a viability, T/C (second compound 10 µM, first compound 10 µM) of 61.3%.
With `CC(CO)NC(=O)c1cc(-c2ccc(Cl)cc2)nn(-c2cnn(C)c2)c1=O` (stereo not drawn) the viability, T/C (compound 0.0316 µM) was 92.8% and 77.6%, the viability, T/C (compound 0.1 µM) was 84.2% and 87.1% and the viability, T/C (compound 0.316 µM) was 94.1% and 107%. The viability, T/C (compound 1 µM) was 97.6% and 75.3%, the viability, T/C (compound 3.16 µM) was 108% and 92.3% and the viability, T/C (compound 10 µM) was 112% and 114%. The IC50 (curve of compound) was > 10000 nM.

From PubChem BioAssay AID2060605 (Molecular Pharmacology Branch, DTP, NCI, 2025)
